From EP3283483B1, “CRYSTALLINE ELIGLUSTAT HYDROCHLORIDE” (Sandoz AG, priority 2015, dated 2016)
Where a name gives a salt, the structure may show the parent alone.

Assays:
[1] = Aqueous solubility determined gravimetrically by slurrying in water; assay type: physicochemical
Protocol: Aqueous solubility was determined gravimetrically by slurrying Eliglustat hydrochloride from example 1 in water at 22°C. The pH of Eliglustat HCl in water was 7.6. A filtered aliquot was transferred to a pre-weighed vial and the solution evaporated.

[2] = Storage stability of the crystalline form, XRPD analysis after storage; assay type: physicochemical; settings: stored for one week at 40°C / 75% relative humidity
Protocol: XRPD analyses were performed on crystalline eliglustat hydrochloride from example 1 using a Panalytical Xpert Pro diffractometer equipped with a Cu X-ray tube and a Pixcel detector system. The isothermal samples were analysed in transmission mode and held between low density polyethylene films. The following XRPD program was used: range 3-40°2θ, step size 0.013°, counting time 99sec, ∼22min run time.
Crystalline eliglustat hydrochloride from example 1 was stored for one week at 40°C / 75% relative humidity.

CCCCCCCC(=O)N[C@H](CN1CCCC1)[C@H](O)c1ccc2c(c1)OCCO2 [Eliglustat hydrochloride, (1R,2R)-octanoic acid[2-(2',3'-dihydro-benzo[1,4]dioxin-6'-yl)-2-hydroxy-1-pyrrolidin-1-ylmethyl-ethyl]-amide]
solubility ([1]; pH 7.6, thermodynamic from solid, water, 22°C, gravimetric, pH in water 7.6): 33 mg/mL | pH of Eliglustat HCl in water ([1]; slurry in water at 22°C): 7.6 | stability of crystalline form after storage (XRPD) [2]: remained stable with regard to its crystalline form
